According to ChEMBL document CHEMBL5233265, “Recent advances in the design and development of formyl peptide receptor 2 (FPR2/ALX) agonists as pro-resolving agents with diverse therapeutic potential” (Eur J Med Chem, 2021):
Values belong to the compound of their own block, whether it stands above or below them.

Tests used:
Type in all cases: cell-based
[1] = target: T1, fMet-Leu-Phe receptor (Homo sapiens, UniProt P21462); assay: Agonist activity at human FPR1 transfected in HL-60 cells assessed as increase in intracellular calcium flux incubated for 30 mins by Fluo-4 AM dye based fluorometer analysis
T1 sequence (P21462 whole entry): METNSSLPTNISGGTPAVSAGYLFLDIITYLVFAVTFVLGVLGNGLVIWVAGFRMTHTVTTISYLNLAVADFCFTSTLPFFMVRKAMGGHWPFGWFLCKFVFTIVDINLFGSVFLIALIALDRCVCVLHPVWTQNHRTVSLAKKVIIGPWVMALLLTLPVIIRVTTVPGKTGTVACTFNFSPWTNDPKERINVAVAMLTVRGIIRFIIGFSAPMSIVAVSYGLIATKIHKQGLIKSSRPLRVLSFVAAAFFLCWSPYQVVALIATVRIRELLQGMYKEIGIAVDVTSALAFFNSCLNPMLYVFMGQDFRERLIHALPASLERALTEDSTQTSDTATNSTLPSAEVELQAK

[2] = target: T2, N-formyl peptide receptor 2 (Homo sapiens, UniProt P25090); assay: Agonist activity at human FPR2 transfected in HL-60 cells assessed as increase in intracellular calcium flux incubated for 30 mins by Fluo-4 AM dye based fluorometer analysis
T2 sequence (P25090 whole entry): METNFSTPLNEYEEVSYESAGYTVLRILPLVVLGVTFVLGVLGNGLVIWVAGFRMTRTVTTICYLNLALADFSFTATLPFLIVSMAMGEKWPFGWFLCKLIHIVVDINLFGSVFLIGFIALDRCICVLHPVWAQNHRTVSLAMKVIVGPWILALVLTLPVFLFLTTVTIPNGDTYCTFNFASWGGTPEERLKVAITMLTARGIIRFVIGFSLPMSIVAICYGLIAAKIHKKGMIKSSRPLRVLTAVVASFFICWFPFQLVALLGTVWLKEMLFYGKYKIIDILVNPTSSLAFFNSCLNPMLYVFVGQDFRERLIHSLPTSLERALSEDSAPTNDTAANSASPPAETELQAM

[3] = target: T2, N-formyl peptide receptor 2; assay: Agonist activity at human FPR2 expressed in CHO cells assessed as increase in calcium flux incubated for 50 mins by FLIPR calcium 5 dye based fluorescence assay
[4] = target: T1, fMet-Leu-Phe receptor; assay: Agonist activity at human FPR1 expressed in CHO cells assessed as increase in calcium flux incubated for 50 mins by FLIPR calcium 5 dye based fluorescence assay
[5] = target: T2, N-formyl peptide receptor 2; assay: Agonist activity at human FPR2 expressed in CHO cells assessed as cAMP level incubated for 1.5 hr by HTRF assay
[6] = target: T1, fMet-Leu-Phe receptor; assay: Agonist activity at human FPR1 expressed in CHO cells assessed as cAMP level incubated for 1.5 hr by HTRF assay; conditions: cho
[7] = target: T2, N-formyl peptide receptor 2; assay: Agonist activity at FPR2 (unknown origin) expressed in CHO/Galpha16 cells assessed as increase in calcium flux by FLIPR assay
[8] = target: T1, fMet-Leu-Phe receptor; assay: Agonist activity at FPR1 (unknown origin) expressed in CHO/Galpha16 cells assessed as increase in calcium flux by FLIPR assay
[9] = target: T3, N-formyl peptide receptor 2 (Homo sapiens) (UniProt P25090); assay: Agonist activity at human FPR2 transfected in HL-60 cells assessed as maximal intracellular calcium flux incubated for 30 mins by Fluo-4 AM dye based fluorometer analysis relative to control; conditions: filed as agonist
T3 sequence (whole entry): T2 sequence (P25090 whole entry)

[10] = target: T3, N-formyl peptide receptor 2 (Homo sapiens); assay: Agonist activity at FPR2 (unknown origin) expressed in CHO/Galpha16 cells assessed as maximal calcium flux at 0.61 to 10000 nM by FLIPR assay relative to control; conditions: dose 0.61-10000 nM
[11] = species: Homo sapiens; assay: Selectivity index, ratio of EC50 for agonist activity at FPR2 (unknown origin) expressed in CHO/Galpha16 cells to EC50 for FPR1 (unknown origin) expressed in CHO/Galpha16 cells
[12] = target: T4, fMet-Leu-Phe receptor (Homo sapiens) (UniProt P21462); assay: Agonist activity at FPR1 (unknown origin) expressed in CHO/Galpha16 cells assessed as maximal calcium flux at 0.61 to 10000 nM by FLIPR assay relative to control; conditions: dose 0.61-10000 nM
T4 sequence (whole entry): T1 sequence (P21462 whole entry)

Compound: CS(=O)(=O)Nc1ccccc1-c1ccc(N2CCC[C@@H](NC(=O)Nc3cnc(Cl)cn3)C2=O)cc1
EC50 [5]: < 5 nM
EC50 [6]: Not Active

Compound: CS(=O)(=O)NCC1(c2ccc(N3CCC[C@@H](NC(=O)Nc4ccc(C(F)(F)F)nc4)C3=O)cc2)CCCC1
EC50 [5]: < 100 nM
EC50 [6]: Not Active

Compound: O=C(Nc1ccc(C(F)(F)F)cc1)N[C@@H]1CCCN(c2ccc(-c3ccccc3F)cc2)C1=O
EC50 [5]: < 5 nM

Compound: NC(=O)c1ccccc1-c1ccc(N2CCC[C@H](NC(=O)Nc3ccc(C(F)(F)F)cc3)C2=O)cc1
EC50 [5]: 40 nM

Compound: CCC[C@H](NC(=O)CNC(=O)Nc1ccc(Br)cc1)C(=O)O
Emax [10]: 105%
Ratio EC50 [11]: 62
Emax [12]: 98%

Compound: COc1cc(F)c([C@H]2CCN(CCC(F)F)C[C@@H]2NC(=O)Nc2ccc(Cl)cc2)c(F)c1 (relative stereo; form 1)
EC50 [3]: 1 nM
EC50 [4]: 1 nM

Compound: CS(=O)(=O)Nc1ccccc1-c1ccc(N2CCC[C@@H](NC(=O)Nc3ccc(C(F)(F)F)nc3)C2=O)cc1
EC50 [5]: < 5 nM
EC50 [6]: Not Active

Compound: O=C(Nc1ccc(C(F)(F)F)cc1)N[C@@H]1CCCN(c2ccc(-c3ccccc3C(=O)O)cc2)C1=O
EC50 [5]: 5 nM

Compound: CC1(C)CN(c2ccc(-c3ccccc3P(C)(C)=O)c(F)c2F)C(=O)[C@@H]1NC(=O)Nc1cnc(Cl)cn1
EC50 [5]: 57 nM

Compound: COc1cc(F)c([C@H]2CCN(CCC(F)F)C[C@@H]2NC(=O)Nc2ccc(Cl)cc2)c(F)c1 (relative stereo; form 2)
EC50 [3]: < 1 nM
EC50 ([4]; cho): 1 nM

Compound: CC(C)C(C(=O)O)C(C)NC(=O)Nc1ccc(Br)cc1 (stereo in doubt; 18)
EC50 [7]: 855 nM
EC50 [8]: 51 nM

Now from value to compound:

EC50 ([1]; hl-60): Not Active
EC50 ([2]; hl-60): Not Active
Compound: N#Cc1ccc(C[C@@H](NC(=O)Nc2ccc(O)cc2)C(=O)NCC2(c3ccccc3)CC2)cc1

EC50 [3]: 1 nM
EC50 [4]: 1 nM
Compound: COc1ccc([C@H]2CCN(Cc3cccnc3)C(=O)[C@@H]2NC(=O)Nc2ccc(F)cc2)cc1 (relative stereo)

EC50 [3]: 1 nM
EC50 [4]: 1 nM
Compound: COc1ccc([C@H]2CCN(c3ccnnc3)C[C@@H]2NC(=O)Nc2ccc(Cl)cc2)cc1 (relative stereo)

EC50 [7]: 3240 nM
EC50 [8]: 13 nM
Compound: CC(C)C(C(=O)O)C(C)NC(=O)Nc1ccc(Br)cc1 (stereo in doubt; 19)

EC50 [7]: 25 nM
EC50 [8]: 1.7 nM
Compound: CC(C)C(C(=O)O)C(C)NC(=O)Nc1ccc(Br)cc1 (stereo in doubt; 21)

Emax [9]: 115%
EC50 ([1]; read-out: EC50): 1400 nM
EC50 ([2]; read-out: EC50): 180 nM
Compound: COc1ccc(NC(=O)N[C@@H](Cc2ccc(C#N)cc2)C(=O)NCC2(c3cccc(O)c3)CC2)cc1

EC50 [5]: < 5 nM
Compound: O=C(Nc1ccc(C(F)(F)F)cc1)NC1CCCN(c2ccc(-c3ccccc3F)cc2)C1=O (racemic)

EC50 [5]: 10 nM
EC50 [6]: Not Active
Compound: Cc1cccc(C2(NC(=O)N[C@@H]3C(=O)NC[C@H]3c3c(F)cc(Br)cc3F)CC2)n1

EC50 [5]: 40 nM
Compound: O=C(Nc1ccccc1F)N[C@@H]1CCCN(c2ccc(-c3ccccc3F)cc2)C1=O

Emax [9]: 75%
EC50 ([1]; read-out: EC50): 1300 nM
EC50 ([2]; read-out: EC50): 1600 nM
Compound: COc1ccc(NC(=O)N[C@@H](Cc2ccc(C#N)cc2)C(=O)NCC2(c3ccc(O)cc3)CC2)cc1

EC50 [7]: 9940 nM
EC50 [8]: 98 nM
Compound: CC(C)C(C(=O)O)C(C)NC(=O)Nc1ccc(Br)cc1 (stereo in doubt; 20)

Emax [9]: 70%
EC50 ([1]; hl-60): Not Active
EC50 ([2]; read-out: EC50): 7000 nM
Compound: COc1ccc(NC(=O)N[C@H](Cc2ccc(C#N)cc2)C(=O)NCC2(c3cccc(O)c3)CC2)cc1

EC50 [3]: 1 nM
EC50 [4]: 1 nM
Compound: COc1ccc([C@@H]2CCN(Cc3ccccn3)C(=O)[C@@H]2NC(=O)Nc2ccc(F)cc2)cc1 (relative stereo)

EC50 [5]: 100 nM
Compound: CC(=O)N1CCN(c2ccc(N3CCC[C@@H](NC(=O)Nc4ccc(C(F)(F)F)cc4)C3=O)cc2)CC1

EC50 [5]: 40 nM
Compound: O=C(Nc1ccc(C(F)(F)F)cc1)N[C@H]1CCCN(c2ccc(-c3ccccc3F)cc2)C1=O
